Consider five compounds from patent US20050049197A1, “Induction of immune response against desired determinants” (Epimmune Inc., priority 1993, published 2005).

One series concerns DR2w2b. Details: species or system human. The conditions noted are these: read-out: Binding Activity DR2wB2, IC50.
The subject of another series is DQ3.1. Set-up: species or system human. The note with it: read-out: Binding Activity DQ3.1, IC50.
The subject of series [1] is PBMC from normal individuals. Briefly: In vitro T cell proliferative responses of human PBMC ([3H]thymidine incorporation). The format is cell-based. The note with it: for AVERAGE S.I. / AVERAGE ΔMAX CPM: average of 5 donors; for X144 (Δmax cpm) / X144 S.I.: donor X144; for X162 (Δmax cpm) / X162 S.I.: donor X162; for X349 (Δmax cpm) / X349 S.I.: donor X349; for X372 (Δmax cpm) / X372 S.I.: donor X372; for X460 (Δmax cpm) / X460 S.I.: donor X460.

Another series has as its target DRw53 (Homo sapiens, UniProt P01903+P13762). Briefly: biochemical. The format is binding.
In another series the test system is P. yoelii sporozoites. Briefly: Inhibition of liver stage development assay (ILSDA), mouse hepatocytes infected with P. yoelii sporozoites. The series is classed as cell-based. The conditions noted are these: sera of immunized mice, dilution not stated. The method, then: In certain experiments, peptides were emulsified in complete Freund's adjuvant (CFA) and injected subcutaneously (S.C.) at the base of the tail in 100 μl volume containing 100 μg of peptide. Mice were boosted with 100 μg of peptide emulsified in 100 μl of incomplete Freund's adjuvant (IFA) 1 month later. Mice were bled just prior to boosting, and 2 weeks after boosting.
All cell culture reagents were obtained from quality Biological, Gaithersburg, Md. The slides were incubated overnight at 37° C. in a 5% CO2/95% air environment. The medium was changed the following day and fresh medium containing dexamethasone (7×10^−5) was added to the cultures.
The 17XNL (nonlethal) strain of P. yoelii or the NF54 strain of P. falciparum were used for murine and human hepatocyte in vitro infections, respectively.
Briefly, 25 μl of the serum samples, diluted to 2× their final concentration, were added to triplicate chamber-slide wells. P. yoeilli or P. falciparum sporozoites, 75,000/well, were then added in a volume of 25 μl to the mouse or human hepatocyte cultures respectively. The cultures were incubated for 3 h, then washed extensively with fresh medium to remove unattached sporozoites. The infected hepatocytes were then incubated for a further 2 (P. yoelii) or 5 days (P. falciparum) with the medium being changed each day of culture. The slides were fixed and immunostained with either a P. yoelii- or P. falciparum-specific monoclonal antibody. Schizonts were counted from the triplicate cultures and the percent inhibition determined as follows: control−test/control×100. Sera from mice injected with CFA (first dose) and IFA (second and third doses) served as the negative controls.

For the next series, the system named is DR5. Set-up: species or system human. The conditions noted are these: read-out: Binding Activity DR5, IC50.
For another series, the system named is DR3. Details: species or system human. The note with it: read-out: Binding Activity DR3, IC50.

Non-standard residues stand in square brackets, D forms with d. Residues, ends and D or L forms follow the SMILES beside them. Cha = N[C@@H](CC1CCCCC1)C(=O)O Where only a bound is given, the exact number is not on record here.

Sequence of DRw53 (P01903 26-254): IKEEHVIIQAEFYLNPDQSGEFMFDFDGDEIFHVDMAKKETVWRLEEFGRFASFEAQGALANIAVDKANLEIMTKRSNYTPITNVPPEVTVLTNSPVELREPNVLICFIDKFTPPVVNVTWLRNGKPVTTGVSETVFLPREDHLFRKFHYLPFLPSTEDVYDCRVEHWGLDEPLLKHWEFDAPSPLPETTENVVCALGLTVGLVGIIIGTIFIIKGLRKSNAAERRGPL
Sequence of DRw53 (P13762 30-266): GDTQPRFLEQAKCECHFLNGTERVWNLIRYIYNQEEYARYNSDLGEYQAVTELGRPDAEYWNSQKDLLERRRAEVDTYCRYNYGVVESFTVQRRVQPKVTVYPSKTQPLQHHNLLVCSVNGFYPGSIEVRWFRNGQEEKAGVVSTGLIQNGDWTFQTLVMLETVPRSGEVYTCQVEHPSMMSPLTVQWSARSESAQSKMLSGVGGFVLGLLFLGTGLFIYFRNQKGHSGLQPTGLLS

One may read the IC50 as the point on the concentration scale where inhibition reaches its midpoint. `CC(C)C[C@H](NC(=O)[C@@H](NC(=O)[C@H](Cc1c[nH]c2ccccc12)NC(=O)[C@H](C)NC(=O)[C@H](C)NC(=O)[C@@H](NC(=O)[C@H](CC1CCCCC1)NC(=O)[C@H](CCCCN)NC(=O)[C@H](C)N)C(C)C)[C@@H](C)O)C(=O)N[C@@H](CCCCN)C(=O)N[C@@H](C)C(=O)N[C@@H](C)C(=O)N[C@@H](C)C(N)=O` [965.17]: the half-maximal inhibitory concentration (IC50) in the series on DR2w2b is 0.0059 µM. In the series on DQ3.1, the IC50 is > 10 µM. Moreover, in series [1] (2nd Stimulation), the “AVERAGE S.I.” value is 2.4, the “AVERAGE ΔMAX CPM” value was found to be 12738 cpm, the “X144 (Δmax cpm)” value worked out at 17391 cpm and the “X144 S.I.” value came out at 1.7. In series [1] (2nd Stimulation), the “X162 (Δmax cpm)” value is recorded as 6323 cpm, the “X162 S.I.” value stood at 2, the “X349 (Δmax cpm)” value is 26512 cpm and the “X349 S.I.” value amounted to 5.6. Moreover, in series [1] (2nd Stimulation), the “X372 (Δmax cpm)” value was determined as 8471 cpm, the “X372 S.I.” value is 1.3, the “X460 (Δmax cpm)” value was 4994 cpm and the “X460 S.I.” value is on record as 1.3. In series [1] (3rd Stimulation), the “AVERAGE S.I.” value turned out to be 3.5, the “AVERAGE ΔMAX CPM” value is reported as 25399 cpm, the “X144 (Δmax cpm)” value came out at 32665 cpm and the “X144 S.I.” value is 4.1. For the same compound, in series [1] (3rd Stimulation), the “X162 (Δmax cpm)” value is 28065 cpm, the “X162 S.I.” value stood at 4.1, the “X349 (Δmax cpm)” value was determined as 31983 cpm and the “X349 S.I.” value was 4. Also, in series [1] (3rd Stimulation), the “X372 (Δmax cpm)” value is recorded as 30661 cpm, the “X372 S.I.” value turned out to be 3.2, the “X460 (Δmax cpm)” value amounted to 3619 cpm and the “X460 S.I.” value is recorded as 2.2. Besides, on DRw53, half-maximal inhibition (IC50) required 0.17 µM.

As to `CC(C)C[C@H](NC(=O)[C@@H](NC(=O)[C@H](Cc1c[nH]c2ccccc12)NC(=O)[C@H](C)NC(=O)[C@H](C)NC(=O)[C@@H](NC(=O)[C@H](CC1CCCCC1)NC(=O)[C@H](CCCCN)NC(=O)[C@@H](C)N)C(C)C)[C@@H](C)O)C(=O)N[C@@H](CCCCN)C(=O)N[C@@H](C)C(=O)N[C@H](C)C(=O)N[C@@H](CCC(N)=O)C(=O)NCC(=O)N1CCC[C@H]1C(=O)NCC(=O)N[C@@H](C)C(=O)N1CCC[C@H]1C(=O)N[C@@H](CCC(N)=O)C(=O)NCC(=O)N1CCC[C@H]1C(=O)NCC(=O)N[C@@H](C)C(=O)N1CCC[C@H]1C(=O)N[C@@H](CCC(N)=O)C(=O)NCC(=O)N1CCC[C@H]1C(=O)NCC(=O)N[C@@H](C)C(=O)N1CCC[C@H]1C(=O)N[C@@H](CCC(N)=O)C(=O)NCC(=O)N1CCC[C@H]1C(=O)NCC(=O)N[C@@H](C)C(=O)N1CCC[C@H]1C(=O)NCC(=O)NCC(=O)N[C@@H](CO)C(=O)O` [PADRE ®-PyB, aKXVAAWTLKAa(QGPGAP)4GGS] (H-[dA]K[Cha]VAAWTLKA[dA]QGPGAPQGPGAPQGPGAPQGPGAPGGS-OH; N-terminus and C-terminus assumed), the “inhibition of P. yoelii sporozoite invasion and development in murine hepatocytes” value with P. yoelii sporozoites is on record as “approximately 90%”.

In the case of `CC(C)C[C@H](NC(=O)[C@@H](NC(=O)[C@H](Cc1c[nH]cn1)NC(=O)[C@H](C)NC(=O)[C@H](C)NC(=O)[C@@H](NC(=O)[C@H](CC1CCCCC1)NC(=O)[C@H](CCCCN)NC(=O)[C@@H](C)N)C(C)C)[C@@H](C)O)C(=O)N[C@@H](CCCCN)C(=O)N[C@@H](C)C(=O)N[C@@H](C)C(=O)N[C@H](C)C(N)=O` [965.15], the half-maximal inhibitory concentration (IC50) in the series on DR2w2b is 0.0054 µM. The IC50 in the series with DQ3.1 was > 10 µM. In addition, in series [1] (2nd Stimulation), the “AVERAGE S.I.” value is listed as 1.8, the “AVERAGE ΔMAX CPM” value was 7920 cpm, the “X144 (Δmax cpm)” value was determined as 7179 cpm and the “X144 S.I.” value was determined as 1.4. In addition, in series [1] (2nd Stimulation), the “X162 (Δmax cpm)” value was 8461 cpm, the “X162 S.I.” value is 3.4, the “X349 (Δmax cpm)” value was 10848 cpm and the “X349 S.I.” value is listed as 1.8. In addition, in series [1] (2nd Stimulation), the “X372 (Δmax cpm)” value was found to be 10011 cpm, the “X372 S.I.” value was determined as 1.3, the “X460 (Δmax cpm)” value is 3100 cpm and the “X460 S.I.” value stood at 1.2. Besides, in series [1] (3rd Stimulation), the “AVERAGE S.I.” value is 2.5, the “AVERAGE ΔMAX CPM” value is recorded as 15462 cpm, the “X144 (Δmax cpm)” value came out at 13055 cpm and the “X144 S.I.” value is 2.4. Further, in series [1] (3rd Stimulation), the “X162 (Δmax cpm)” value turned out to be 12309 cpm, the “X162 S.I.” value was 1.6, the “X349 (Δmax cpm)” value stood at 20653 cpm and the “X349 S.I.” value was 2.4. In series [1] (3rd Stimulation), the “X372 (Δmax cpm)” value is 30810 cpm, the “X372 S.I.” value turned out to be 4.7, the “X460 (Δmax cpm)” value is given as 486 cpm and the “X460 S.I.” value amounted to 1.2. In the series with DR5, the IC50 turned out to be 0.0299 µM. At DRw53, the IC50 worked out at 0.0792 µM. In the series on DR3, the IC50 was 1.39 µM.

For `CC(C)C[C@H](NC(=O)[C@@H](NC(=O)[C@H](CC(N)=O)NC(=O)[C@H](C)NC(=O)[C@H](C)NC(=O)[C@@H](NC(=O)[C@H](CC1CCCCC1)NC(=O)[C@H](CCCCN)NC(=O)[C@@H](C)N)C(C)C)[C@@H](C)O)C(=O)N[C@@H](CCCCN)C(=O)N[C@@H](C)C(=O)N[C@@H](C)C(=O)N[C@H](C)C(N)=O` [965.08], the IC50 in the series with DR2w2b was found to be 0.0038 µM. Further, the IC50 in the series on DQ3.1 is > 10 µM. Moreover, in series [1] (2nd Stimulation), the “AVERAGE S.I.” value stood at 1.7, the “AVERAGE ΔMAX CPM” value stood at 11208 cpm, the “X144 (Δmax cpm)” value worked out at 8440 cpm and the “X144 S.I.” value is 1.3. In series [1] (2nd Stimulation), the “X162 (Δmax cpm)” value is listed as 9234 cpm, the “X162 S.I.” value was determined as 2.6, the “X349 (Δmax cpm)” value was 9065 cpm and the “X349 S.I.” value stood at 1.8. For the same compound, in series [1] (2nd Stimulation), the “X372 (Δmax cpm)” value came out at 23017 cpm, the “X372 S.I.” value worked out at 1.6, the “X460 (Δmax cpm)” value stood at 6286 cpm and the “X460 S.I.” value was 1.4. In series [1] (3rd Stimulation), the “AVERAGE S.I.” value came out at 2, the “AVERAGE ΔMAX CPM” value was 12070 cpm, the “X144 (Δmax cpm)” value is 3559 cpm and the “X144 S.I.” value is 1.4. Further, in series [1] (3rd Stimulation), the “X162 (Δmax cpm)” value is listed as 14622 cpm, the “X162 S.I.” value stood at 2.3, the “X349 (Δmax cpm)” value was 31639 cpm and the “X349 S.I.” value was 2.8. Further, in series [1] (3rd Stimulation), the “X372 (Δmax cpm)” value turned out to be 8710 cpm, the “X372 S.I.” value came out at 1.9, the “X460 (Δmax cpm)” value was determined as 1820 cpm and the “X460 S.I.” value is 1.6. Also, the IC50 in the series with DR5 is 0.008 µM. For the same compound, the IC50 in the series on DR3 came out at 0.25 µM.

Regarding `CC(C)C[C@H](NC(=O)[C@@H](NC(=O)[C@H](C)NC(=O)[C@H](C)NC(=O)[C@H](C)NC(=O)[C@@H](NC(=O)[C@H](CC1CCCCC1)NC(=O)[C@H](CCCCN)NC(=O)[C@@H](C)N)C(C)C)[C@@H](C)O)C(=O)N[C@@H](CCCCN)C(=O)N[C@@H](C)C(=O)N[C@@H](C)C(=O)N[C@H](C)C(N)=O` [965.16], the IC50 with DR2w2b is 0.0061 µM. Further, the IC50 in the series on DQ3.1 is > 10 µM. Also, in series [1] (2nd Stimulation), the “AVERAGE S.I.” value worked out at 1.3, the “AVERAGE ΔMAX CPM” value came out at 1843 cpm, the “X144 (Δmax cpm)” value was found to be 4388 cpm and the “X144 S.I.” value is on record as 1.2. Further, in series [1] (2nd Stimulation), the “X162 (Δmax cpm)” value stood at 4090 cpm, the “X162 S.I.” value stood at 2.1, the “X349 (Δmax cpm)” value amounted to 0 cpm and the “X349 S.I.” value was found to be 1. Further, in series [1] (2nd Stimulation), the “X372 (Δmax cpm)” value was found to be 736 cpm, the “X372 S.I.” value is 1, the “X460 (Δmax cpm)” value is 0 cpm and the “X460 S.I.” value stood at 1. In series [1] (3rd Stimulation), the “AVERAGE S.I.” value is 1.5, the “AVERAGE ΔMAX CPM” value was 5955 cpm, the “X144 (Δmax cpm)” value came out at 5220 cpm and the “X144 S.I.” value is given as 1.5. Also, in series [1] (3rd Stimulation), the “X162 (Δmax cpm)” value is 4762 cpm, the “X162 S.I.” value came out at 1.9, the “X349 (Δmax cpm)” value turned out to be 9316 cpm and the “X349 S.I.” value is 1.6. In series [1] (3rd Stimulation), the “X372 (Δmax cpm)” value is recorded as 10439 cpm, the “X372 S.I.” value was 1.7, the “X460 (Δmax cpm)” value was 37 cpm and the “X460 S.I.” value is recorded as 1. Also, the IC50 in the series with DR5 turned out to be 0.0167 µM.
